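Cells were grown in 96-well plates and exposed to each compound for 48 hours at five concentrations; endpoints were interpolated linearly between bracketing concentrations, or set to the highest concentration if not reached. GI50 is the concentration that inhibits growth by half. Definition used: TGI = concentration required for complete inhibition of growth.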
Legend:
Test in all cases: NCI-60 cell line screen, 48 h
[1] = test system: SNB-75 CNS
[2] = test system: MALME-3M melanoma
[3] = test system: HCT-15 colon
[4] = test system: 786-0 renal
[5] = test system: UO-31 renal
[6] = test system: NCI-H23 lung
[7] = test system: SW-620 colon
[8] = test system: KM12 colon
[9] = test system: A498 renal
[10] = test system: BT-549 breast

| SMILES | TGI [1] [µM] | TGI [2] [µM] | TGI [3] [µM] | TGI [4] [µM] | TGI [5] [µM] | TGI [6] [µM] | TGI [7] [µM] | TGI [8] [µM] | TGI [9] [µM] | GI50 [2] [µM] | GI50 [3] [µM] | GI50 [4] [µM] | GI50 [5] [µM] | GI50 [6] [µM] | GI50 [8] [µM] | GI50 [9] [µM] | GI50 [7] [µM] | GI50 [10] [µM] | TGI [10] [µM] | GI50 [1] [µM] |
| --- | --- | --- | --- | --- | --- | --- | --- | --- | --- | --- | --- | --- | --- | --- | --- | --- | --- | --- | --- | --- |
| Cc1ccc(S(=O)(=O)N[C@H](C(=O)O)c2ccccc2)cc1 | > 100 | > 100 | > 100 | > 100 | > 100 | > 100 | > 100 | > 100 | > 100 | – | – | – | – | – | – | – | – | – | – | – |
| CC(NS(=O)(=O)c1ccc([N+](=O)[O-])cc1)C(=O)O (stereo unspecified) | > 100 | > 100 | > 100 | > 100 | > 100 | > 100 | > 100 | > 100 | > 100 | – | – | – | – | – | – | – | – | – | – | – |
| NC1=NC(=O)/C(=C/c2ccccc2[N+](=O)[O-])C(N)=N1 | > 100 | > 100 | > 100 | > 100 | > 100 | > 100 | > 100 | > 100 | – | – | – | – | – | – | – | – | – | – | – | – |
| O=C1C(Cl)=C(Nc2cccc(Cl)c2)C(=O)N1Cc1ccccc1 | – | 20.1 | 27.4 | 16.2 | 25.8 | 23.4 | – | 26.9 | 22.7 | 5.12 | 10.8 | 3.85 | 6.94 | 5.94 | 11.5 | 10.6 | – | – | – | – |
| CS/C(=N\C(=S)N(C)C)N(c1ccccc1)c1nc(=[N+](C)C)ss1 | 19.1 | 7.44 | > 100 | 39.3 | > 100 | 51.7 | 16.3 | 15.8 | 7.04 | – | – | – | – | – | – | – | – | – | – | – |
| CCCCC[C@H](O)/C=C/[C@@H]1[C@@H](C/C=C\CCCC(=O)O)[C@@H](O)C[C@H]1O | – | > 100 | > 100 | > 100 | > 100 | > 100 | > 100 | > 100 | > 100 | > 100 | > 100 | > 100 | > 100 | > 100 | > 100 | > 100 | > 100 | > 100 | > 100 | – |
| NC(=O)NNCc1ccccc1 | – | – | > 100 | > 100 | > 100 | > 100 | > 100 | > 100 | > 100 | – | – | – | – | – | – | – | – | – | > 100 | – |
| CCOc1ccccc1NC(=O)CC1C(=O)Nc2ccccc2S1=O (stereo unspecified) | > 100 | > 100 | > 100 | > 100 | > 100 | > 100 | > 100 | – | > 100 | – | – | – | – | – | – | – | – | – | – | – |
| CC1CC(C2=CC=CCS2)=Nc2ccccc2S1 (stereo unspecified) | 78.6 | > 100 | > 100 | > 100 | > 100 | > 100 | > 100 | > 100 | > 100 | – | – | – | – | – | – | – | – | – | – | – |
| COc1ccc(C(=O)c2cc(OC)c(OC)c(OC)c2)cc1 | 0.988 | > 100 | – | > 79.2 | 61.9 | > 100 | > 100 | > 33.1 | – | – | – | – | – | – | – | – | – | – | > 100 | – |
| Cc1nc(-c2cccc(Nc3nc(-c4ccc(Cl)cc4)cs3)c2)cs1 | – | – | 18.6 | 21.8 | 21.1 | 10.9 | 27 | 20 | 20.9 | – | 7.83 | 10.9 | 10 | 1.27 | 8.4 | 12.3 | 11.9 | 10.7 | 21.6 | – |
| O=C(Nc1ccccc1-c1n[nH]c(=S)[nH]c1=O)C(F)(F)F | > 100 | > 100 | > 100 | > 100 | > 100 | > 100 | > 100 | > 100 | – | – | – | – | – | – | – | – | – | – | – | – |
| Cc1ccccc1NC(=O)C(=O)C(C#N)c1ccc(Cl)cc1 (stereo unspecified) | > 100 | > 100 | 37.1 | > 100 | > 100 | > 100 | 31.2 | > 100 | > 100 | – | – | – | – | – | – | – | – | – | – | – |
| O=C(Nc1ccc(Cl)cc1Cl)C1C(=O)N(c2ccc(Cl)cc2Cl)C(=O)/C1=N\Nc1ccc([N+](=O)[O-])cc1[N+](=O)[O-] (stereo unspecified) | 97.7 | > 100 | > 100 | > 100 | > 100 | 87.6 | > 100 | > 100 | > 100 | – | – | – | – | – | – | – | – | – | – | – |
| COc1ccc(C2CC(c3cc(OC)c(OC)c(OC)c3)=NO2)cc1OCCCCOc1cc2c(cc1OC)C(=O)N1CCC[C@H]1C=N2 (stereo partly specified) | 3.29 | – | 5.54 | 2.99 | 6.26 | 3.5 | 3.15 | 3.32 | 3.22 | – | 2.27 | 1.57 | 2.09 | 1.83 | 1.74 | 1.72 | 1.55 | 1.23 | 3.54 | 1.71 |
| COc1cc(/C=C/c2ccncc2)cc(OC)c1OC | > 100 | > 100 | > 100 | > 100 | 83.1 | > 100 | > 100 | > 100 | > 100 | – | – | – | – | – | – | – | – | – | – | – |
| CC1CC[C@]2(C(=O)O)CCC3(COC(=O)/C=C\c4ccc(O)cc4)C(=CCC4[C@@]5(C)CC[C@H](O)C(C)(C)C5CC[C@]43C)[C@@H]2[C@H]1C (stereo partly specified) | 80.9 | 87.9 | > 100 | 43.4 | 32.1 | 28.5 | > 100 | 25.7 | 60.4 | – | – | – | – | – | – | – | – | – | – | – |
| F | 5570 | 5060 | > 6870 | > 6870 | 6220 | > 6870 | – | > 6870 | 4390 | 1920 | 3800 | 2550 | 1790 | 5260 | 2610 | 1620 | – | 3050 | > 6870 | 2160 |
| Cc1ccc(NC(=O)c2cc3cc(N=Nc4ccc(Br)cc4)ccc3oc2=O)cc1 | > 100 | > 100 | > 100 | > 100 | – | > 100 | > 100 | > 100 | > 100 | – | – | – | – | – | – | – | – | – | – | – |
| Cc1ccc(S(=O)(=O)OC2CCN(C)CC2)cc1 | > 100 | 37.9 | > 100 | > 100 | – | > 100 | 42 | – | – | – | – | – | – | – | – | – | – | – | > 100 | – |

From PubChem BioAssay (NCI)
